Results as given in ChEMBL document CHEMBL1201862, “PubChem BioAssay data set” (2004).
Active and inactive are the calls of the source.

How the values were obtained:
[1] = luciferase reporter signal suppression in cells – H4 neuroglioma cells, luminescence, dose response (AID 1990); type: functional, cell-based
[2] = system: BJ; experiment: BJ-TERT fibroblast viability loss – cell-based, RAS-independent, luminescence, dose response (AID 1933); type: functional; conditions: Homo sapiens
[3] = target: T1, Heat shock factor protein 1 (Mus musculus, UniProt P38532); experiment: decrease of HSF1-responsive luciferase luminescence – cell-based, NIH3T3, dose retest, confirmation (AID 2382); type: functional;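 also: NIH3T3 fibroblasts with HSF1-driven luciferase reporter stressed by proteasome inhibitor MG132; luminescence from HSF1-driven luciferase expression after 8 hours of MG132 stress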
T1 sequence (P38532 whole entry): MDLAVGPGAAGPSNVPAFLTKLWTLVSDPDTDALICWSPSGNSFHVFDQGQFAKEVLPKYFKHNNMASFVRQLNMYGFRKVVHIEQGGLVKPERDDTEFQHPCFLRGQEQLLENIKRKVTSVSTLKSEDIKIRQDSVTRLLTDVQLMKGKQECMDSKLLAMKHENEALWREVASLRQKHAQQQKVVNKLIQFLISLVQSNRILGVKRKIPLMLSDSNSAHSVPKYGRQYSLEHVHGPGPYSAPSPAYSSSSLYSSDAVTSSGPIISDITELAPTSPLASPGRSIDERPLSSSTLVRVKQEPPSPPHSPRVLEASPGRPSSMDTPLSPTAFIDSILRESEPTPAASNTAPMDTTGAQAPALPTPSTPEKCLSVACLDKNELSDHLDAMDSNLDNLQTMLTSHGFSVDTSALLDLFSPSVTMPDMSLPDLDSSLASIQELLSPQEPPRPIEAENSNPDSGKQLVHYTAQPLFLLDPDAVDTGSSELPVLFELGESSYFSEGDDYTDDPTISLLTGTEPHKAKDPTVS

[4] = alpha-synuclein stem-loop luciferase translation blockers – H4 neuroglioma cells, luminescence, confirmation (AID 1988); type: functional, cell-based
[5] = system: BJ; experiment: cells; type: functional, cell-based; conditions: Homo sapiens
[6] = target: G-protein coupled receptor 55 (Homo sapiens, UniProt Q9Y2T6); experiment: inhibition of LPI-stimulated GPR55 beta-arrestin translocation – imaging, U2OS, beta-arrestin-GFP, LPI agonist, primary screen (AID 2013); type: functional;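 also: antagonist potency measured as reduced agonist-driven arrestin aggregation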
G-protein coupled receptor 55, sequence (Q9Y2T6 whole entry): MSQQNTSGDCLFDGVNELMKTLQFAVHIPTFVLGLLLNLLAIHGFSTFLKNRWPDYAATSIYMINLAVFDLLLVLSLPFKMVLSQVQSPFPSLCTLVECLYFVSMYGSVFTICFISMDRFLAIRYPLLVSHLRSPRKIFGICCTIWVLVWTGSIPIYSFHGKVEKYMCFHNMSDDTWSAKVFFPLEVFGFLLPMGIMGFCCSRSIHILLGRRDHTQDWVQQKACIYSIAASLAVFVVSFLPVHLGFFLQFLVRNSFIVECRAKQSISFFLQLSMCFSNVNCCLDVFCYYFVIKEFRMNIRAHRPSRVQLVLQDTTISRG

[7] = system: BJ; experiment: BJ-TERT-LT-ST fibroblast viability loss – cell-based, RAS-independent, luminescence, dose response (AID 1935); type: functional; conditions: Homo sapiens;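 also: BJ fibroblasts immortalized with TERT plus LT and ST oncogenes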
[8] = DRD fibroblast viability loss – cell-based, non-viral oncogenic, luminescence, dose response (AID 1934); type: functional; conditions: Homo sapiens
[9] = target: T2, Ubiquitin-conjugating enzyme E2 N (Homo sapiens, UniProt P61088); type: functional;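 also: Dose-response confirmation in a TR-FRET assay detecting UBC13-driven polyubiquitin chain formation, inhibition measured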
T2 sequence (P61088 whole entry): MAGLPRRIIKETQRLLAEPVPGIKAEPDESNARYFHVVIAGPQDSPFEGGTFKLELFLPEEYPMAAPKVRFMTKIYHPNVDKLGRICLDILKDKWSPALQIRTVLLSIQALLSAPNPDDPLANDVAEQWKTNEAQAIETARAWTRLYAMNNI

[10] = system: BJ; experiment: growth inhibition of engineered Ras-driven BJ cells – cell-based, alamar blue fluorescence, cherrypicked samples, dose response (AID 2631); type: functional; conditions: Homo sapiens;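 also: confirmatory dose-response assay in RAS-dependent BJ fibroblasts engineered with TERT, LT and ST, with cytotoxicity read by fluorescence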
[11] = cytotoxicity toward MDA-MB-231 breast cancer cells – cell-based, CellTiter-Glo luminescence, cherry-pick, cytotoxicity control for RAD54 inhibitor project, dose response (AID 651692); type: functional
[12] = target: T3, DNA repair and recombination protein RAD54-like (Homo sapiens, UniProt Q92698); experiment: RAD54 Holliday junction migration blockers – biochemical, fluorescence, cherry-picked samples, dose series, confirmation (AID 651657); type: functional
T3 sequence (Q92698 whole entry): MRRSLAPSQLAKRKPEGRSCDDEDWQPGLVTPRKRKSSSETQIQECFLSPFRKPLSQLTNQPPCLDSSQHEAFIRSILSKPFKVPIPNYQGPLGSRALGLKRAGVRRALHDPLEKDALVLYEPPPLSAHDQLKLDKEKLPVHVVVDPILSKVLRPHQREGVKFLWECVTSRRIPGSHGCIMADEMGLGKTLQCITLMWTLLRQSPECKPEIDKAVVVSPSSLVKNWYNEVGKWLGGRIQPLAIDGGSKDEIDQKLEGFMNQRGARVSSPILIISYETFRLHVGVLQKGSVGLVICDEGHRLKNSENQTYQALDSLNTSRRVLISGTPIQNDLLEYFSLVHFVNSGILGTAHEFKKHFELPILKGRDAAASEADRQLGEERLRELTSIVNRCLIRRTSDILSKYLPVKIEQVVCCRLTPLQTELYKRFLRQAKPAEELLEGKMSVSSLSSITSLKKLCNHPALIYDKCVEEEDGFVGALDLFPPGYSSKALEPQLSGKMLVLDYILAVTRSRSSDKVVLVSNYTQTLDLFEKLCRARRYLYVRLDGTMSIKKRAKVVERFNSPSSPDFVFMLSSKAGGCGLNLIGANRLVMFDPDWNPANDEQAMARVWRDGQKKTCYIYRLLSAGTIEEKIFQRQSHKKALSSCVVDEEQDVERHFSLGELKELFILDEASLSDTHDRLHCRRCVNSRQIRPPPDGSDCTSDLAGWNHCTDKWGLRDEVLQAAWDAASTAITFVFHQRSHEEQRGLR

[13] = target: DNA repair protein RAD52 homolog (Homo sapiens, UniProt P43351); type: functional, biochemical
DNA repair protein RAD52 homolog, sequence (P43351 whole entry): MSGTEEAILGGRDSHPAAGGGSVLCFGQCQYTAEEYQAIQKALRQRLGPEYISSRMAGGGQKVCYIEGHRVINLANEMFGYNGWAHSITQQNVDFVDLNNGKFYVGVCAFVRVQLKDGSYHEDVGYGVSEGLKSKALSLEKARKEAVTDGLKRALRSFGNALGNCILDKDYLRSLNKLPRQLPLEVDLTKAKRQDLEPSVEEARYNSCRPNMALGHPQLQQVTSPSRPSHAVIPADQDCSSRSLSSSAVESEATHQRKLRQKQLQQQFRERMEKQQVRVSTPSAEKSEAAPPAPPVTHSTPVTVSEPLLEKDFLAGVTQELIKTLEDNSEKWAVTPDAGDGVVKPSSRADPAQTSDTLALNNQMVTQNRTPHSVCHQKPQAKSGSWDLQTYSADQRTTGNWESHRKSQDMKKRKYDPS

[14] = target: Paired box protein Pax-8 (Homo sapiens, UniProt Q06710); experiment: PAX8 transcriptional activity inhibition in RMG-I – RMG-I cells, luciferase, cherry-pick, dose response (AID 687027); type: functional, cell-based;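 also: luciferase reporter driven by Pax8 target thyroperoxidase promoter measured by SteadyGlo luminescence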
Paired box protein Pax-8, sequence (Q06710 whole entry): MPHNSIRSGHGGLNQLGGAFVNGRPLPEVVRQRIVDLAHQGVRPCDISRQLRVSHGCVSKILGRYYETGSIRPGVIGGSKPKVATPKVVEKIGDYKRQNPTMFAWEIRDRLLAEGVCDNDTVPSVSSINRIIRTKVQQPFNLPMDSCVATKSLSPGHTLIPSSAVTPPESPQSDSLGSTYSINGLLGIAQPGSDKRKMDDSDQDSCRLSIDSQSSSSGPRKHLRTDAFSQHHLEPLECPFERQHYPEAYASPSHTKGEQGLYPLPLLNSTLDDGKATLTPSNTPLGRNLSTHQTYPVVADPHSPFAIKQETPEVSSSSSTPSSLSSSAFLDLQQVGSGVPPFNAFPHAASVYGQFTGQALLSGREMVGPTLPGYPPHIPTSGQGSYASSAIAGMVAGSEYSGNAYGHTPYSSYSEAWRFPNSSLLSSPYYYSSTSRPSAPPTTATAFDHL

[15] = general cell-killing toxicity readout – plate reader, dry powder samples, cytotoxicity control for PAX8 inhibitor project, dose response (AID 743021); type: functional, cell-based
[16] = target: T4, Sentrin-specific protease 1 (Homo sapiens, UniProt Q9P0U3); experiment: SENP1 catalytic domain blockers, concentration series – biochemical, kinetic FRET, dose response (AID 651697); type: functional; conditions: read-out: IC50_Mean
T4 sequence (Q9P0U3 whole entry, the tested form may be a part): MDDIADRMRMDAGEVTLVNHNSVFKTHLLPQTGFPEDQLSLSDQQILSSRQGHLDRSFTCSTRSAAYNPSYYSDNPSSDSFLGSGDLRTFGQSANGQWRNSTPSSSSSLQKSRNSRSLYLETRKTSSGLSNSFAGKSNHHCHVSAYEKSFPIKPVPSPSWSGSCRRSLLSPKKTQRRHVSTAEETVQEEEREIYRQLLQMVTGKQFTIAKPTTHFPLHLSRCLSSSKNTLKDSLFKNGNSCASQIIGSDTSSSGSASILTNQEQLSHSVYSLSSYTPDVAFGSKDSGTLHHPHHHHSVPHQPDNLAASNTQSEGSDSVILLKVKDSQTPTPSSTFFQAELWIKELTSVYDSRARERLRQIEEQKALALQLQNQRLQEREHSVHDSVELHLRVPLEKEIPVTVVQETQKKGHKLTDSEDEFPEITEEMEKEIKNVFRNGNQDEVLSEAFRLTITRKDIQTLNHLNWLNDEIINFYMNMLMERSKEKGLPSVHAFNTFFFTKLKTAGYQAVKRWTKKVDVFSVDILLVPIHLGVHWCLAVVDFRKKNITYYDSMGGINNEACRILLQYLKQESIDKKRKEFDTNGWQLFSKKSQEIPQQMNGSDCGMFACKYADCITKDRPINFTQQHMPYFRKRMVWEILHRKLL

[17] = target: T4, Sentrin-specific protease 1; experiment: Dose response confirmation of small molecule inhibitors of the catalytic domain of the SUMO protease, SENP1 in a FRET assay.; type: functional; conditions: read-out: IC50_Mean
[18] = target: Beta-lactamase (Pseudomonas aeruginosa, UniProt Q79MP6);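 also: biochemical dose-response test of metallo-beta-lactamase enzyme inhibition, read out by epi-absorbance; purified recombinant IMP-1 metallo-beta-lactamase with nitrocefin as substrate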
Beta-lactamase (Pseudomonas aeruginosa, UniProt Q79MP6), sequence (Q79MP6 whole entry): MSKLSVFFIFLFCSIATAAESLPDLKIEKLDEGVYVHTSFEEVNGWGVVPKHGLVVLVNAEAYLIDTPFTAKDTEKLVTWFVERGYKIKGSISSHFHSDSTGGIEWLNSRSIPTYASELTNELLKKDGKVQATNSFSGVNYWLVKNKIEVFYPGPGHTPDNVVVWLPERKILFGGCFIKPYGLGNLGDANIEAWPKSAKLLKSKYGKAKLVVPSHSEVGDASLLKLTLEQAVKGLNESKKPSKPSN

[19] = target: Beta-lactamase (Salmonella choleraesuis (strain SC-B67), UniProt Q5J463)
Beta-lactamase (Salmonella choleraesuis (strain SC-B67), UniProt Q5J463), sequence (Q5J463 whole entry): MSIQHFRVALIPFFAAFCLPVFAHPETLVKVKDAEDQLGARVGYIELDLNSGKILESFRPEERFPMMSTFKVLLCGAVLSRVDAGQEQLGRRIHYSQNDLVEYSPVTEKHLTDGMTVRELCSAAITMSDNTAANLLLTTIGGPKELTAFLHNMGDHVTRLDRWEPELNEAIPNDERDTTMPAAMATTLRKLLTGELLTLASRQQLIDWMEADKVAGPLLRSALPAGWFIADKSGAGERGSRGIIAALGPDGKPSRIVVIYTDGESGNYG

[20] = target: T5, Endoribonuclease toxin MazF (Escherichia coli K-12, UniProt P0AE70); experiment: activation of MazEF endoribonuclease cleavage – biochemical, fluorescence, single-stranded RNA substrate, uHTS hits, dose response (AID 588481); type: functional
T5 sequence (P0AE70 whole entry): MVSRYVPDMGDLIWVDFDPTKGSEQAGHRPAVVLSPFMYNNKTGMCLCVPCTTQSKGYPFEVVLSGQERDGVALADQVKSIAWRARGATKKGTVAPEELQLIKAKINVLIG

[21] = target: T5, Endoribonuclease toxin MazF; experiment: substrate-only fluorescence increase artefacts – biochemical, single-stranded RNase substrate, counter-screen for MazEF activator project, dose response (AID 588502); type: functional
[22] = Inhibition of T. cruzi Tulahuen strain amastigotes in L-6 muscle cells Measured in Cell-Based and Microorganism Combination System Using Plate Reader - 2138-03_Inhibitor_Dose_CherryPick_Activity.; type: functional; conditions: Rattus norvegicus, L6
[23] = L6 myocyte viability loss – cell-based, plate reader, cherry-pick, cytotoxicity control, dose response (AID 651896); type: functional
[24] = Inhibition of Plasmodium falciparum NF54 Measured in Cell-Based System Using Plate Reader - 2138-11_Inhibitor_Dose_CherryPick_Activity.; type: functional
[25] = antileishmanial activity on axenic amastigotes – plate reader, cherry pick, dose response (AID 651891); type: functional, cell-based; conditions: Leishmania donovani
[26] = intracellular Trypanosoma cruzi inhibitors in host cells – cell-based, plate reader, cherry-pick samples, set 3, dose response (AID 651818); type: functional;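 also: compounds incubated with infected cells for about four days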
[27] = African trypanosome bloodstream form growth inhibition – STIB900 strain, plate reader, cherry pick, dose response (AID 651893); type: functional, cell-based, Trypanosoma brucei rhodesiense; conditions: Trypanosoma brucei
[28] = anti-trypanosomal activity in BESM host cells – imaging, CA-I/72 strain, bovine embryo skeletal muscle, dry powder, dose response (AID 651885); type: functional, cell-based

CN(C)CCNC(=O)c1cc2c(s1)-c1ccc(Cl)cc1SC2
EC50 [1]: > 120 µM (not active) | EC50 [2]: 4.54 µM (active) | EC50 [3]: 13.5 µM (active) | EC50 [4]: 9.06 µM (active) | EC50 [5]: 5.2 µM (inconclusive) | IC50 [6]: 6.25 µM (active) | EC50 [7]: 5.57 µM (inconclusive) | EC50 [8]: 5.06 µM (active) | IC50 [9]: > 20 µM (inactive) | EC50 [10]: 2.18 µM (active) | AC50 [11]: 11 µM (active) | AC50 [12]: 60.8 µM (active) | AC50 [13]: 8.31 µM (active) | AC50 [14]: 9.29 µM (active) | AC50 [15]: 29.3 µM (active)

O=C1C=C(c2cccc(Cl)c2O)C[C@@H](c2ccc3c(c2)OCO3)C1
IC50 [16]: 1.93 µM (active) | IC50 [17]: 0.993 µM (active)

CCOc1cc2c(cc1/C=C/c1noc(C)c1[N+](=O)[O-])OC(C)C2 (stereo not drawn)
IC50 [18]: > 59.6 µM (inactive) | IC50 [19]: > 59.6 µM (inactive) | EC50 [20]: > 99 µM (inactive) | EC50 [21]: > 99 µM (inactive)

C[C@@H]1CN([C@@H](C)CO)C(=O)c2cccc(NC(=O)c3ccncc3)c2O[C@H]1CN(C)Cc1ccccc1
IC50 [22]: 4.77 µM (inactive) | IC50 [23]: > 100 µM (inactive) | IC50 [24]: 4.77 µM (inactive) | IC50 [25]: > 100 µM (inactive) | AC50 [26]: 0.08 µM (active) | IC50 [27]: 5.33 µM (inactive) | IC50 [28]: 10 µM (inconclusive)
